Reference: paper PMC9739180, “Discovery of a Flavonoid FM04 as a Potent Inhibitor to Reverse P-Glycoprotein-Mediated Drug Resistance in Xenografts and Improve Oral Bioavailability of Paclitaxel” (International Journal of Molecular Sciences, 2022)
Like-named read-outs stand apart in the source and are kept apart here. Values belong to the compound of their own block, whether it stands above or below them.

How the values were obtained:
BCRP = target: T1, BCRP (Homo sapiens, UniProt Q9UNQ0); assay: BCRP-modulating activity in HEK293/R2 cells (MTS); format: cell-based; conditions: no modulator; read-out: IC50 of Topotecan in HEK293/R2, DMSO
T1 construct: expressed in transfected cells; host or cells: HEK293/R2
T1 sequence (Q9UNQ0 1-655): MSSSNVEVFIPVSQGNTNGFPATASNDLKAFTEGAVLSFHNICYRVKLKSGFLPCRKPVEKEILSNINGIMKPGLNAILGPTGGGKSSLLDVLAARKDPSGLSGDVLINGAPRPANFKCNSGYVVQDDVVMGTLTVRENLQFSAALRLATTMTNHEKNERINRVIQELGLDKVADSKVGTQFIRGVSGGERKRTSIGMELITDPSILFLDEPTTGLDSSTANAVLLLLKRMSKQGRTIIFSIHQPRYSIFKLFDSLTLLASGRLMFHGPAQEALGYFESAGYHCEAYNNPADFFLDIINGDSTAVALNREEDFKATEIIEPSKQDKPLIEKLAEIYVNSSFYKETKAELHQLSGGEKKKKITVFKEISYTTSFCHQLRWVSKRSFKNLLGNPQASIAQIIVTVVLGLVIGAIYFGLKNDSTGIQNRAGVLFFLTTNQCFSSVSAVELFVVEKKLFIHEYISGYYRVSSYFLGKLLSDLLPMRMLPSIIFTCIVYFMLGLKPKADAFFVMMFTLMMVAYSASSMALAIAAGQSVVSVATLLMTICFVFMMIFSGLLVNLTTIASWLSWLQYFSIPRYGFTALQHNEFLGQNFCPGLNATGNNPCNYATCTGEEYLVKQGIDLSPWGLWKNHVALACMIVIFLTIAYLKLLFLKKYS
Description: (§1) The final volume in each well of the 96-well plate was 200 μL. The plate was then incubated for 5 days at 37 °C. The cell viability was determined using an MTS assay as reported previously.

LCC6 cells = assay: IC50 of anticancer drugs in wild-type LCC6 with or without FM04; format: cell-based, human; conditions: for IC50: Homo sapiens; for RF, LCC6 + DMSO: IC50 in LCC6MDR without FM04 / IC50 in LCC6; for RF, LCC6 + 1 μM FM04: IC50 in LCC6MDR without FM04 / IC50 in LCC6 with FM04
Source text: Table S1. IC50 of anticancer drugs in LCC6 and LCC6MDR and P-gp modulating activity of FM04.
fold): IC50 of an anticancer drug of LCC6MDR without FM04/IC50 of an anticancer of LCC6 with or without
FM04 or LCC6MDR with FM04. N = 2 - 8 independent experiment. The IC50 values were presented as mean ±
standard error mean. /: not determined.

P-gp [1] = target: T2, P-gp (Homo sapiens, UniProt P08183); assay: Reversal of P-gp-mediated MDR in LCC6MDR cells (MTS cell viability, 5 days)
Description: To each well of a 96-well plate, 6500 cells of LCC6MDR were seeded in 180 μL supplemented medium. A 10 µL compound (FD18, 14a, FM04 or FM327) at different concentrations (0, 62.5, 125, 250, 500 and 1000 nM) was added to the well. […] The final volume in each well was 200 µL and the 96-well plate was incubated at 37 °C for 5 days. The cell viability was determined using the MTS assay as reported previously. The % of cell survival, IC50 of anticancer drugs towards the LCC6MDR and the EC50 of modulators were analyzed using nonlinear regression in Prism 5.0 (Prism version 5.0, GraphPad software, San Diego, CA, USA).

MRP1 = target: T3, MRP1 (Homo sapiens, UniProt P33527); assay: MRP1-modulating activity in 2008/MRP1 cells (MTS); format: cell-based; conditions: no modulator; read-out: IC50 of DOX in 2008/MRP1, DMSO
T3 construct: expressed in transfected cells; host or cells: 2008/MRP1 (human ovarian cancer)
Description: as §1

[2] = In vivo monitoring of FD18 and its metabolites in plasma after I.V. FD18; set-up: species or system SD rats; conditions: after FD18 5 mg/kg I.V.; for AUC(0-t) / Cmax / Tmax: Sprague-Dawley, rat, iv
Description: Figure 3 Proposed metabolism pathway of FD18 and its metabolites formed in vivo. (A) metabolism study of FD18 was conducted on human liver microsomes (HLM) and rat liver microsomes (RLM) in vitro. Chemical structure of the 3 metabolites was predicted by LC/QTOF-MS/MS and confirmed by the synthetic compounds (Figure 2E–J). The pathways for biotransformation of FD18 into FM04 was proposed. (B) plasma concentration profile of FD18 and the in vivo formation of metabolites M1, M2 and M3. After I.V. injection of FD18 (5 mg/kg) into […], plasma was collected at 10, 30, 60, 120, 240, 420 and 600 min, respectively. The concentration of FD18 at each time point was determined by UPLC-MS/MS. Its plasma concentration was further quantified with peak area ratio of FD18 against D7-18. […] In vivo formation of metabolites M1, M2 and M3 were monitored and quantified by UPLC-MS/MS with corresponding calibration curve of 14a, FM04 and FM327. Pharmacokinetic parameter AUC was calculated by the pharmacokinetic software-Summit® PK solutions 2.0 (Summit Research Service, Ashland, Wilmington, DE, USA).
FD18 stock solution was freshly prepared in 33% Cremophor EL, 33% ethanol and 33% saline at a concentration of 9.5 mg/mL. FD18 stock solution was then diluted with saline to form a 4 mg/mL working solution for animal injection. SD rats were intravenously (I.V.) administered with FD18 at 5 mg/kg (n = 3). Blood samples (approx. 300 μL) were taken via jugular vein at 10, 30, 60, 120, 240 and 420 min post-administration. Blood samples were centrifuged at 16,100× g for 10 min to obtain plasma. Plasma samples (50 µL) were spiked with 15 μL of internal standard (IS) (D7-NBn, 10 μg/mL). Two hundred microliter of methanol was added for protein precipitation. Samples were centrifuged at 16,100× g for 10 min prior to filtering by 0.22 μm syringe filter for UPLC-MSMS analysis.
The UPLC-MS/MS system consists of an Agilent 1260 infinity UPLC interfaced with a triple quadrupole mass spectrometer (Agilent 6460) equipped with an electrospray ionization source in positive mode. Zorbax Eclipse XDB-C8 (4.6 × 150 mm, 5 µM) was used for separation. The mobile phase for chromatographic separation consisted of methanol + 0.1% formic acid (solvent B) and Milli-Q water + 0.1% formic acid (solvent A) with gradient elution of 30% solvent B to 100% solvent B in 5 min. The elution condition was allowed for equilibrium from the 7th min onward. The analysis time for each injection was 13 min. The flow rate was 0.4 mL/min. The synthetic compound D7-NBn, the deuterated benzyl form of FD18, was used as the internal standard (IS) for the quantification of the three metabolites. Multiple reaction monitoring (MRM) was set to monitor the transitions of D7-NBn [M+H]^+, FD18 [M+H]^+, M1 [M+H]^+, M2 [M+H]^+ and M3 [M+H]^+ at 731.01 > 98.1 m/z, 724.01 > 91.1 m/z, 634.01 > 114 m/z, 416.01 > 91.1 m/z and 327.01 > 239 m/z, respectively. The coefficient of determination (R^2) for 14a, FM04 and FM327 were above 0.99. The dynamic range for the metabolites in the current setting is 78 ng/mL to 2.44 ng/mL.

P-gp [3] = target: T2, P-gp; set-up: expressed in transfected cells; host or cells: MDA435/LCC6MDR (human melanoma); method as in PMID 22320402; conditions: LCC6MDR; cited from earlier work
P-gp [4] = target: T2, P-gp; assay: Intracellular DOX accumulation assay in LCC6MDR cells
L929 = tested on: L929; set-up: method as in earlier work; conditions: mouse fibroblast cell line; read-out: Cytotoxicity IC50, L929; cited from earlier work
[5] = oral co-administration; cited from earlier work
P-gp [6] = target: T2, P-gp; set-up: expressed in transfected cells; host or cells: MDA435/LCC6MDR (human melanoma); conditions: read-out: EC50 for reversing PTX resistance; cited from earlier work
[7] = LCC-6, wild-type LCC6, no modulator, read-out: IC50 of anticancer drug, LCC6 + DMSO

T2 sequence (P08183 whole entry): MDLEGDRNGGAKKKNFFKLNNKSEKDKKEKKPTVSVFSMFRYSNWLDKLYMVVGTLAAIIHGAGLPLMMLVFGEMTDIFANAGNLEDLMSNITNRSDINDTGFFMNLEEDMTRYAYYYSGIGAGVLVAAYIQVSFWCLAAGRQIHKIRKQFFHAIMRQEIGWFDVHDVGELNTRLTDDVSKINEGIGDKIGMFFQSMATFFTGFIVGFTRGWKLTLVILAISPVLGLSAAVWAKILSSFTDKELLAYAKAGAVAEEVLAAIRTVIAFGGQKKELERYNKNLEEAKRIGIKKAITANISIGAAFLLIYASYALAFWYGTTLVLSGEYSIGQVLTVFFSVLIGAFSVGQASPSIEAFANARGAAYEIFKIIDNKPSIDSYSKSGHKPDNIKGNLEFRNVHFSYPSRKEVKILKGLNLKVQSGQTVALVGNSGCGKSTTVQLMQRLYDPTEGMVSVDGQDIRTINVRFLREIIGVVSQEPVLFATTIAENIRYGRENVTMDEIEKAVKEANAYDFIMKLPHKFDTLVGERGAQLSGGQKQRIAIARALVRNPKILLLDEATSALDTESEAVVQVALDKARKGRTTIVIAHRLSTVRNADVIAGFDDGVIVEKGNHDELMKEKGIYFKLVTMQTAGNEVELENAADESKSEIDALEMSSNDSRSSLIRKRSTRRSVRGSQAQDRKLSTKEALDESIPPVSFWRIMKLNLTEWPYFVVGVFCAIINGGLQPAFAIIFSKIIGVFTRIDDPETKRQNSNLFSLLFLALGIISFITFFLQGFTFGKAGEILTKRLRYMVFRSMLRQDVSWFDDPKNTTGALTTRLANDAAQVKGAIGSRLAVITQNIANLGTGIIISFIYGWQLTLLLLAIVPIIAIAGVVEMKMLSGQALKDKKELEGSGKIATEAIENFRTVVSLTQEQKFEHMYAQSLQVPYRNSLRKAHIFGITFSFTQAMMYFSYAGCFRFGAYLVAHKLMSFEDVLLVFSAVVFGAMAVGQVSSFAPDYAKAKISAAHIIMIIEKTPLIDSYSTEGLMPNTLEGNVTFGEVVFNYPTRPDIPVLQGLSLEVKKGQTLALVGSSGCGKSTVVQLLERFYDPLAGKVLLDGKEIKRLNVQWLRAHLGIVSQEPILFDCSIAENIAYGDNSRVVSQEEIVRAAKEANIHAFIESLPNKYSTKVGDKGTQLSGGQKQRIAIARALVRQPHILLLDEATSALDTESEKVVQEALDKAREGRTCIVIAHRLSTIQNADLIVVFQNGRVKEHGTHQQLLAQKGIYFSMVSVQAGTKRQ
T3 sequence (P33527 whole entry): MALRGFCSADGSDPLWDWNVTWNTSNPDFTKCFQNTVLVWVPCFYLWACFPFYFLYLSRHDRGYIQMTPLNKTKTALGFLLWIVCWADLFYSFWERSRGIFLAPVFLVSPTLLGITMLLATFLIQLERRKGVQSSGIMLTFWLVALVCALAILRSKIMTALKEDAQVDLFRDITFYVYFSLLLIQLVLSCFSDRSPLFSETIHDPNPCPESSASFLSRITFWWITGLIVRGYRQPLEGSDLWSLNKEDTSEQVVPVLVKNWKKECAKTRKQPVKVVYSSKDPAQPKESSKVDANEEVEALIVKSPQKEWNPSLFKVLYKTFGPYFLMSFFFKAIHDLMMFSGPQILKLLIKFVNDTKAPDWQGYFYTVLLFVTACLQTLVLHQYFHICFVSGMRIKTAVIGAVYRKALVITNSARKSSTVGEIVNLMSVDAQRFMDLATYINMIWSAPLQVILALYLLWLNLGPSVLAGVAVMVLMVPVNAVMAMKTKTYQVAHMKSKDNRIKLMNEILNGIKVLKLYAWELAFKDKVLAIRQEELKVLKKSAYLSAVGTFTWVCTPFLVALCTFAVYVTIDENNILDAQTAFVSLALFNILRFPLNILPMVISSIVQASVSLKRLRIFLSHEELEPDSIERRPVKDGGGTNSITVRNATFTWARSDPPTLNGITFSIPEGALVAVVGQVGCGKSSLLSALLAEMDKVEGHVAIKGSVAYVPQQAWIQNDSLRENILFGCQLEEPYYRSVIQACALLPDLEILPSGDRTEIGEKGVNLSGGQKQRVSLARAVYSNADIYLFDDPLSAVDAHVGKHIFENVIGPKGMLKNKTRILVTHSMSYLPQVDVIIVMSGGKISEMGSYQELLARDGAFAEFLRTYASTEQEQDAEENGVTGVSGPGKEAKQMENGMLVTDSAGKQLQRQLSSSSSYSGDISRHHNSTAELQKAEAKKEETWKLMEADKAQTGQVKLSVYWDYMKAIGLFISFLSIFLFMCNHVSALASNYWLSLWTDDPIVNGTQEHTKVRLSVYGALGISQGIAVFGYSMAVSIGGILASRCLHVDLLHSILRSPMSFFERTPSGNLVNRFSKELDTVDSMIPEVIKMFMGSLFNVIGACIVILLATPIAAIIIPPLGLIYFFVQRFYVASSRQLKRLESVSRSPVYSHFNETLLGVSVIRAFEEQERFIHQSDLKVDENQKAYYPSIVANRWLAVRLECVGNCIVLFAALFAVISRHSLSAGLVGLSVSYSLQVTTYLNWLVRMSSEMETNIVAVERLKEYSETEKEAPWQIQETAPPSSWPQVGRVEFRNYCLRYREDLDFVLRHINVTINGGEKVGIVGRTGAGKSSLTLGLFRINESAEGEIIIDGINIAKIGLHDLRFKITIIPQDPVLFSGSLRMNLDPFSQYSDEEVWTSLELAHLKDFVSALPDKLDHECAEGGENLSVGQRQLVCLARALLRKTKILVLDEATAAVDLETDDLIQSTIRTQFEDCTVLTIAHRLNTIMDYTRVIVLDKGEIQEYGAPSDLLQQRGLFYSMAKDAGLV

IC50 (BCRP): 225 ± 32 nM
Structure (SMILES): CC[C@@]1(O)C(=O)OCc2c1cc1n(c2=O)Cc2cc3c(CN(C)C)c(O)ccc3nc2-1 [Topotecan, topotecan]

IC50 (LCC6 cells; [7]): 0.38 ± 0.14 nM
Structure (SMILES): CC[C@]1(O)C[C@@H]2CN(CCc3c([nH]c4ccccc34)[C@@](C(=O)OC)(c3cc4c(cc3OC)N(C)[C@H]3[C@@](O)(C(=O)OC)[C@H](OC(C)=O)[C@]5(CC)C=CCN6CC[C@]43[C@@H]65)C2)C1 [Vinblastine, vinblastine]
RF, LCC6 + DMSO (LCC6 cells): 24.2
RF, LCC6 + 1 μM FM04 (LCC6 cells): 10.7
RF, LCC6MDR + 1 μM FM04 (P-gp [1]): 61.3
RF, LCC6MDR + DMSO (P-gp [1]): 1.0

IC50 (LCC6 cells; [7]): 0.71 ± 0.32 nM
Structure (SMILES): CC[C@]1(O)C[C@H]2CN(CCc3c([nH]c4ccccc34)[C@@](C(=O)OC)(c3cc4c(cc3OC)N(C=O)[C@H]3[C@@](O)(C(=O)OC)[C@H](OC(C)=O)[C@]5(CC)C=CCN6CC[C@]43[C@@H]65)C2)C1 [Vincristine, vincristine]
RF, LCC6 + DMSO (LCC6 cells): 39.3
RF, LCC6 + 1 μM FM04 (LCC6 cells): 21.5
RF, LCC6MDR + 1 μM FM04 (P-gp [1]): 68.0
RF, LCC6MDR + DMSO (P-gp [1]): 1.0

IC50 (LCC6 cells; [7]): 27 ± 4.6 nM
IC50 (MRP1): 616 ± 54.2 nM
Structure (SMILES): COc1cccc2c1C(=O)c1c(O)c3c(c(O)c1C2=O)C[C@@](O)(C(=O)CO)C[C@@H]3O[C@H]1C[C@H](N)[C@H](O)[C@H](C)O1 [DOX, doxorubicin]
RF, LCC6 + DMSO (LCC6 cells): 38.6
RF, LCC6MDR + 1 μM FM04 (P-gp [1]): 25.2
RF, LCC6MDR + DMSO (P-gp [1]): 1.0

Structure (SMILES): COc1cccc2c1C(=O)c1c(O)c3c(c(O)c1C2=O)C[C@@](O)(C(C)=O)C[C@@H]3O[C@H]1C[C@H](N)[C@H](O)[C@H](C)O1 [Daunorubicin, daunorubicin]
IC50 (LCC6 cells; LCC-6, read-out: IC50 of anticancer drug, LCC6 + DMSO): 22.1 ± 2.2 nM
RF, LCC6 + DMSO (LCC6 cells): 60.5
RF, LCC6MDR + 1 μM FM04 (P-gp [1]): 6.3
RF, LCC6MDR + DMSO (P-gp [1]): 1.0

AUC(0-t) [2]: 49.1 ng·h/mL
Cmax [2]: 21 ng/mL
Tmax [2]: 50 min
Normalized AUC (systemic exposure relative to FD18) ([2]; listed as M3): 7%
Structure (SMILES): O=c1cc(-c2ccc(OCCOCCO)cc2)oc2ccccc12 [FM327, 2-(4-(2-(2-hydroxyethoxy)ethoxy)phenyl)-4H-chromen-4-one]
EC50 (P-gp [1]; EC50 needed for reversing MDR in LCC6MDR cells: PTX, LCC6MDR, PTX resistance): > 1000 nM

AUC(0-t) [2]: 78.9 ng·h/mL
Cmax [2]: 18 ng/mL
Tmax [2]: 50 min
Normalized AUC (systemic exposure relative to FD18) ([2]; listed as M1): 12%
Structure (SMILES): O=c1cc(-c2ccc(OCCOCCNCCOCCOc3ccc(-c4cc(=O)c5ccccc5o4)cc3)cc2)oc2ccccc12 [14a, 1,13-Bis[4′-(4H-chromen-4-on-2-yl)phenyl]-1,4,10,13-tetraoxa-7-azatridecane]
fold lower activity than FD18 in reversing PTX resistance (P-gp [1]): 2.1 fold

Structure (SMILES): O=c1cc(-c2ccc(OCCOCCOCCOCCOc3ccc(-c4cc(=O)c5ccccc5o4)cc3)cc2)oc2ccccc12 [compound 61]
RF (relative-fold) (P-gp [1]): > 28

AUC(0-t) [2]: 682 ng·h/mL
EC50 (P-gp [4]): 116 nM
Structure (SMILES): O=c1cc(-c2ccc(OCCOCCN(CCOCCOc3ccc(-c4cc(=O)c5ccccc5o4)cc3)Cc3ccccc3)cc2)oc2ccccc12 [FD18]
Transport substrate of P-gp (P-gp [3]): substrate of P-gp
IC50 (L929): 85000 ± 5000 nM
RF (relative-fold) (P-gp [1]): > 68
EC50 (P-gp [1]; EC50 for P-gp modulation, range over PTX reversal and DOX accumulation in LCC6MDR): 116 to 148 nM

Structure (SMILES): O=C1c2c(O)ccc(O)c2C(=O)c2c(NCCNCCO)ccc(NCCNCCO)c21 [Mitoxantrone, mitoxantrone]
IC50 (LCC6 cells; [7]): 37.4 ± 11.7 nM
RF, LCC6 + DMSO (LCC6 cells): 28.1
RF, LCC6MDR + 1 μM FM04 (P-gp [1]): 17.3
RF, LCC6MDR + DMSO (P-gp [1]): 1.0

Structure (SMILES): CC(C)c1nc(CN(C)C(=O)N[C@H](C(=O)N[C@@H](Cc2ccccc2)C[C@H](O)[C@H](Cc2ccccc2)NC(=O)OCc2cncs2)C(C)C)cs1 [ritonavir]
fold enhancement of the AUC of oral PTX vs a single oral dose of PTX [5]: 2.5 fold

Structure (SMILES): O=c1cc(-c2ccc(O)cc2)oc2cc(O)cc(O)c12 [apigenin]
EC50 (P-gp [6]): > 10000 nM
RF (relative-fold) (P-gp [1]): 1.0
